According to patent publication US20050004014A1, “New compound” (FUJISAWA PHARMACEUTICAL CO., LTD., priority 2003, published 2005):

Tested on: Candida albicans FP-633
Type: cell-based
Settings: FP-633, 24 h, pH 7.3
Protocol: In vitro antimicrobial activity of the object compound of Examples 1, 2, 3 and 4 disclosed later was determined by MICS in mouse serum as described below. The MICS in mouse serum were determined by the microdilution method using ICR mouse serum buffered with 20 mM HEPES buffer (pH 7.3) as a test medium. Inoculum suspension of 10^6 cells/ml were prepared by a hemocytometric procedure and diluted to obtain an inoculum size of approximately 1.0×10^3 cells/ml. Microplates were incubated at 37° C. for 24 hours in 5% CO2. The MICS were defined as the lowest concentrations at which no visible growth was observed.

MIC, <0.15 µg/mL:
COc1cc(C[C@@H](O)[C@@H]2NC(=O)[C@@H]3C[C@@H](O)CN3C(=O)[C@H]([C@@H](C)O)NC(=O)[C@@H](NCc3ccc(-c4nnc(-c5ccc(N6CCN(C7CCCCC7)CC6)cc5)s4)cc3)C[C@@H](O)CNC(=O)[C@@H]3[C@@H](O)[C@@H](C)CN3C(=O)[C@H]([C@H](O)CCNC(CO)CO)NC2=O)ccc1O [Example 4]
COc1cc(C[C@@H](O)[C@@H]2NC(=O)[C@@H]3C[C@@H](O)CN3C(=O)[C@H]([C@@H](C)O)NC(=O)[C@@H](NCc3ccc(-c4ccc(N5CCN([C@H]6CC[C@](OC)(C7CCCCC7)CC6)CC5)cc4)cc3)C[C@@H](O)CNC(=O)[C@@H]3[C@@H](O)[C@@H](C)CN3C(=O)[C@H]([C@H](O)CCN)NC2=O)ccc1O [Example 2]
COc1cc(C[C@@H](O)[C@@H]2NC(=O)[C@@H]3C[C@@H](O)CN3C(=O)[C@H]([C@@H](C)O)NC(=O)[C@@H](NCc3ccc(-c4nnc(-c5ccc(N6CCC(OC)(C7CCCCC7)CC6)cc5)s4)cc3)C[C@@H](O)CNC(=O)[C@@H]3[C@@H](O)[C@@H](C)CN3C(=O)[C@H]([C@H](O)CCNC(CO)CO)NC2=O)ccc1O [Example 3]
COc1cc(C[C@@H](O)[C@@H]2NC(=O)[C@@H]3C[C@@H](O)CN3C(=O)[C@H]([C@@H](C)O)NC(=O)[C@@H](NCc3ccc(-c4nnc(-c5ccc(N6CCN([C@H]7CC[C@@H](C)CC7)CC6)cc5)s4)cc3)C[C@@H](O)CNC(=O)[C@@H]3[C@@H](O)[C@@H](C)CN3C(=O)[C@H]([C@H](O)CCN)NC2=O)ccc1O [Example 1]
